Data: ChEMBL document CHEMBL1201862, “PubChem BioAssay data set” (2004)
Calls of active or inactive are those of the source.

Assays:
[1] = biological target: T1, Zinc finger protein mex-5 (Caenorhabditis elegans, UniProt Q9XUB2); test: potency of MEX-5 RNA-binding blockers – biochemical, C. elegans, fluorescence polarization, dose response (AID 1960)
T1 sequence (Q9XUB2 whole entry): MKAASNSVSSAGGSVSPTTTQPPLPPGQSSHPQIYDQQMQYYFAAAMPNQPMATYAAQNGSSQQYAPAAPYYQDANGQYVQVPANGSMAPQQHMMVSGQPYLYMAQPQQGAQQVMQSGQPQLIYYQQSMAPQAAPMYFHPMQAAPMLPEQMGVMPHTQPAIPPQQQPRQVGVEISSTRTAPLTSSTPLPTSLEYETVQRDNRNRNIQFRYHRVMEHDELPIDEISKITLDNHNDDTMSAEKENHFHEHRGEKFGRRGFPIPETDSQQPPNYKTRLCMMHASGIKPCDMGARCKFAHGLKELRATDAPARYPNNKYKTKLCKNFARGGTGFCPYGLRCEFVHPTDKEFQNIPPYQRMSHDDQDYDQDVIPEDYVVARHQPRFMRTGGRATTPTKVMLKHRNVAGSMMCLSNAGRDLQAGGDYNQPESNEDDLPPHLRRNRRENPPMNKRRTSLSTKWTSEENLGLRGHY

[2] = biological target: T2, RNA-binding protein pos-1 (Caenorhabditis elegans, UniProt G5EF15); test: disruptors of C. elegans POS-1 RNA interaction – biochemical, fluorescence polarization, dose response (AID 1964);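 note: purified POS-1 fused to maltose binding protein made in E. coli; potency of compounds blocking POS-1 binding to fluorescent RNA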
T2 sequence (G5EF15 whole entry): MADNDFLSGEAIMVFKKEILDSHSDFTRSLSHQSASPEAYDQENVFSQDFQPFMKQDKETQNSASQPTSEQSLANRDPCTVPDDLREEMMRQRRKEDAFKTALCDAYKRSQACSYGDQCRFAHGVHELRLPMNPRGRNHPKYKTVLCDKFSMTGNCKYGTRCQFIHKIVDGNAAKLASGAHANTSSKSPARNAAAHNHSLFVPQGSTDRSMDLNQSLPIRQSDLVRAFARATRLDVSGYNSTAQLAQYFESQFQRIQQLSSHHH

[3] = biological target: T3, Carboxy-terminal domain RNA polymerase II polypeptide A small phosphatase 1 (Homo sapiens, UniProt Q9GZU7); test: CTDSP1 inhibitors, concentration-response, biochemical, absorbance readout, ultra-high-throughput screen actives (AID 540297); format: functional
T3 sequence (Q9GZU7 whole entry): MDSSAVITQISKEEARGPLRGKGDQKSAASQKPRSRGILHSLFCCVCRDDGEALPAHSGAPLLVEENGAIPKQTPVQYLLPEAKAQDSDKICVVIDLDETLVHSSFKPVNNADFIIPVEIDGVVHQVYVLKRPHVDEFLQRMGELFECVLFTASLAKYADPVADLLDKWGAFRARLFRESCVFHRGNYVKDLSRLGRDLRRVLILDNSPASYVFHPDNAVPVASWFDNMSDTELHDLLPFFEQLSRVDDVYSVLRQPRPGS

[4] = biological target: T4, Replicative DNA helicase DnaB (Mycobacterium tuberculosis, UniProt P9WMR3); test: DnaB intein splicing inhibitors, dose response, biochemical, cell-free fluorescence (AID 449749); format: functional
T4 sequence (P9WMR3 whole entry): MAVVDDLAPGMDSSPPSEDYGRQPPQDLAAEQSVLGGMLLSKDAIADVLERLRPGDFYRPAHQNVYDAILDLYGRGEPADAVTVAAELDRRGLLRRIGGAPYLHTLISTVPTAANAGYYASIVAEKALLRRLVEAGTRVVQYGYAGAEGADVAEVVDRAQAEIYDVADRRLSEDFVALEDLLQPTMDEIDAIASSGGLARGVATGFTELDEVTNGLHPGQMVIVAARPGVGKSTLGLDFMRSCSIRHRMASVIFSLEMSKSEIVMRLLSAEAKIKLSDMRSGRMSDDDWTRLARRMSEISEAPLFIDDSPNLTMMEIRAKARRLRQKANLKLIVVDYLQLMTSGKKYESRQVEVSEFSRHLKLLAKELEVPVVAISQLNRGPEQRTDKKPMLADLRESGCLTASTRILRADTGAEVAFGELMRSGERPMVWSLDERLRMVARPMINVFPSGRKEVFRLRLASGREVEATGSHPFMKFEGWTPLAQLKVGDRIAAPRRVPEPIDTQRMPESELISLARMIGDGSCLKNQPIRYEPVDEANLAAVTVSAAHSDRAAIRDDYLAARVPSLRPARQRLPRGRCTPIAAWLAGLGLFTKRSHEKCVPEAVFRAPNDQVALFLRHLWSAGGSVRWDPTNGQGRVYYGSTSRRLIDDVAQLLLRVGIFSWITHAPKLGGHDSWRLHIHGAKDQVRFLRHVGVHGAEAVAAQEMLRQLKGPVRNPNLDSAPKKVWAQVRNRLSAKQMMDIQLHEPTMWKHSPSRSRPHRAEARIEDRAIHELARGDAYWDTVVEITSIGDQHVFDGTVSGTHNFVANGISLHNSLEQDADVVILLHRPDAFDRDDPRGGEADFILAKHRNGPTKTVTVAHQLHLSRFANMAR

Protein RecA = biological target: T5, Protein RecA (Mycobacterium tuberculosis, UniProt P9WHJ3); test: Fluorescence Cell-Free Homogeneous Dose Retest to Identify Inhibitors of RecA-Intein Splicing Activity. [Related pubchem assays (depositor defined):AID2097, AID2223, AID489010, AID492950]; format: functional
T5 sequence (P9WHJ3 whole entry): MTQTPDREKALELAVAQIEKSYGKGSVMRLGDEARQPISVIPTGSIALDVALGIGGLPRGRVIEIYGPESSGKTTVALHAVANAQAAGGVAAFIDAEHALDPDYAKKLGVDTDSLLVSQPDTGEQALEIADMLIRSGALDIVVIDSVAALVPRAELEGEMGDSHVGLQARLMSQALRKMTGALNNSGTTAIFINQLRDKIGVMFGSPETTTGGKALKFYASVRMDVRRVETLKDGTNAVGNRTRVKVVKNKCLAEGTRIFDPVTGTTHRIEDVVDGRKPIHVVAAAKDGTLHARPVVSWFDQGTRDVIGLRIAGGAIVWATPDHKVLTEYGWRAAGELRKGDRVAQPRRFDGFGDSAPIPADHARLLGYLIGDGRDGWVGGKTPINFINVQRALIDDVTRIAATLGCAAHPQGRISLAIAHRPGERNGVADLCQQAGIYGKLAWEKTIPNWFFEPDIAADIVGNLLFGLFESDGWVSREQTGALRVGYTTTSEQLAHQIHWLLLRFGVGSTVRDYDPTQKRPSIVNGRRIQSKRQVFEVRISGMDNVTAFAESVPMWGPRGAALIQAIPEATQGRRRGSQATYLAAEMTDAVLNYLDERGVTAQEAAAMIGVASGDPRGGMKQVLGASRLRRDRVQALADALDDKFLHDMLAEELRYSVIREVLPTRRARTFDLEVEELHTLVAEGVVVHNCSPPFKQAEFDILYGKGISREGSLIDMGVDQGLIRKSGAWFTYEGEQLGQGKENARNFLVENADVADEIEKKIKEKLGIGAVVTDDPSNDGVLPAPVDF

[5] = biological target: T6, Heat shock factor protein 1 (Mus musculus, UniProt P38532); test: decrease of HSF1-responsive luciferase luminescence – cell-based, NIH3T3, dose retest, confirmation (AID 2382); format: functional;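 note: NIH3T3 fibroblasts with HSF1-driven luciferase reporter stressed by proteasome inhibitor MG132; luminescence from HSF1-driven luciferase expression after 8 hours of MG132 stress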
T6 sequence (P38532 whole entry): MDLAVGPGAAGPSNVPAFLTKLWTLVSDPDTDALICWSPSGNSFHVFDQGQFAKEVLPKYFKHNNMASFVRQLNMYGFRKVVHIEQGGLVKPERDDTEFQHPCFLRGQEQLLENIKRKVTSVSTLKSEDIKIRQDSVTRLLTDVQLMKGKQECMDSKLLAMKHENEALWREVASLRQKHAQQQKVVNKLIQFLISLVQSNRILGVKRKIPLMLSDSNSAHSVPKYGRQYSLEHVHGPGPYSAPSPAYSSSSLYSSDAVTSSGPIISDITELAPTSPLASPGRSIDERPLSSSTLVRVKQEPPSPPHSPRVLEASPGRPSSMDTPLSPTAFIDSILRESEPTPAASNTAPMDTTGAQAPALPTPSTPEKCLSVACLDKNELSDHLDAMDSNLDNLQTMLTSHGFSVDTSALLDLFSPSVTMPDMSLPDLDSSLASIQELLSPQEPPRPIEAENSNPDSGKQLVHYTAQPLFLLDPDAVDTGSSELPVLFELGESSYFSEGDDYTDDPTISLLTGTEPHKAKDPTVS

Cytochrome P450 3A4 = Cytochrome P450 3A4 (Homo sapiens, UniProt P08684);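 note: CYP3A4 tested as one member of a cytochrome P450 panel screen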
Chain of Cytochrome P450 3A4 (P08684 whole entry): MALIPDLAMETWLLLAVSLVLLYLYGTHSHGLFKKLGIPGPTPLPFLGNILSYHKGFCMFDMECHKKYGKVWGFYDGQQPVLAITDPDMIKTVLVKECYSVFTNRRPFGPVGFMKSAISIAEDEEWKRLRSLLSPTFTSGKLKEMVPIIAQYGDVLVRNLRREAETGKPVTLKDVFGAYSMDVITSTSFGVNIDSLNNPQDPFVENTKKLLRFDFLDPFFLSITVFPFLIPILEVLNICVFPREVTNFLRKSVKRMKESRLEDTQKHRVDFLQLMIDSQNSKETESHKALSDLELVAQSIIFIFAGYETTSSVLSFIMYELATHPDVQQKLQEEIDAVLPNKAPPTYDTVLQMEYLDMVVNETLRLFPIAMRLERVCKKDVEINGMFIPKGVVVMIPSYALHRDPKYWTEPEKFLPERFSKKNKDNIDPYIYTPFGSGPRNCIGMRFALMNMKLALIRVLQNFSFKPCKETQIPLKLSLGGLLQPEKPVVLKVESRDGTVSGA

Cytochrome P450 2C9 = Cytochrome P450 2C9 (Homo sapiens, UniProt P11712)
Chain of Cytochrome P450 2C9 (P11712 whole entry): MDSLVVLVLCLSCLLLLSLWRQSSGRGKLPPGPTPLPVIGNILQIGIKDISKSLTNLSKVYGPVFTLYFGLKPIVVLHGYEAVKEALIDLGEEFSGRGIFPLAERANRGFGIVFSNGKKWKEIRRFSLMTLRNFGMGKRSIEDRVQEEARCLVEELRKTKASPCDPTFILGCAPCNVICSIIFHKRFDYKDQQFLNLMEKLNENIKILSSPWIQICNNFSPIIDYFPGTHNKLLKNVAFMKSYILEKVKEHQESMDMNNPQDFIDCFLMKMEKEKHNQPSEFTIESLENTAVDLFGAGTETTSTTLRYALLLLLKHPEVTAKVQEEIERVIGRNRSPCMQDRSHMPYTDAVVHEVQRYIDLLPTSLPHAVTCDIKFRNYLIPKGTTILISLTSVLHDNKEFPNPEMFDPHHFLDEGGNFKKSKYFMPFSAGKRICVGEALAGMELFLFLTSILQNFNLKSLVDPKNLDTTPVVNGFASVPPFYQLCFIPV

H9c2 = test: cells; format: functional, cell-based; conditions: Rattus norvegicus, H9c2, Myocardium;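 note: confirmatory concentration-response retest of ultra-high-throughput screening hits for modulation of myocardial damage; cell death induced by hydrogen peroxide oxidative stress; compound pretreatment for 60 min then peroxide exposure for 2 h; potency is for protecting the cells against peroxide damage rather than for killing them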
H4 = test: Luminescence Cell-Based Dose Response HTS to Identify Activators of 5'UTR Stem-Loop Driven Prion Protein mRNA Translation in H4 Neuroglioblastoma Cells. [Related pubchem assays: 1829 (Project Summary), 1814 (Primary HTS)]; format: functional; conditions: Homo sapiens
[6] = Luminescence Cell-Based Dose Response HTS to Identify Activators of Luciferase Translation or Activity in H4 […] Cells. [Related pubchem assays: 1829 (Project Summary), 1814 (Primary HTS)]; format: functional
[7] = viability of uninfected HEp-2 cells – cell-based, HTS, cytotoxicity control for RSV inhibitor project, dose response (AID 2410); format: functional; conditions: human respiratory syncytial virus

SMILES: Cc1sc(-c2ccccn2)nc1OC(=O)c1cccc(Cl)c1Cl
- EC50 [1]: > 300 µM (not active)
- EC50 [2]: > 300 µM (not active)

SMILES: COc1cccc(C(=O)c2cn(CC(=O)NCc3ccco3)c3nc(C)ccc3c2=O)c1
- IC50 [3]: 11.2 µM (active)

SMILES: Cc1ccc(C2C(C#N)=C(N)Oc3[nH]nc(C)c32)cc1 (stereo not drawn)
- AC50 [4]: 7.89 µM (active)
- EC50 (Protein RecA): 3.56 µM (active)

SMILES: O=C(COC(=O)C1CCCC1)Nc1ncc(Cl)cc1Cl
- EC50 [1]: 34.3 µM (active)
- EC50 [2]: > 300 µM (not active)

SMILES: Cc1nc2c(ncn2-c2ccccc2)c(=O)n1NC(=O)CN1CCOCC1
- EC50 [5]: > 195 µM (not active)

SMILES: COc1cccc(-n2c(N)c(-c3nc4ccccc4[nH]3)sc2=S)c1
- EC50 [5]: > 195 µM (not active)

SMILES: Cc1cccc(C)c1NC(=O)CN1C(=O)S/C(=C\c2cccn2-c2cccc(C(=O)O)c2)C1=O
- IC50 [3]: 6.71 µM (active)
- EC50 [1]: 60 µM (active)
- EC50 [2]: > 300 µM (not active)

SMILES: CCCOc1ccc(C(=O)C2=C(O)C(=O)N(CCN(C)C)C2c2ccc(O)c(OC)c2)cc1 (stereo not drawn)
- EC50 [5]: > 195 µM (not active)

SMILES: O=C(O)CSc1ccccc1C(=O)O
- EC50 [5]: > 195 µM (not active)

SMILES: Cc1cc(N2CCC(C)CC2)n2ncc(-c3ccccc3)c2n1
- EC50 [5]: < 0.16 µM (active)

SMILES: CCOC(=O)c1ccc(NC(=O)CC2COc3ccccc3O2)cc1 (stereo not drawn)
- EC50 [5]: > 195 µM (not active)

SMILES: COCCN1CCC(CNCc2c(C(=O)N3CCCCC3)nc3c(C)cccn23)C1 (stereo not drawn)
- EC50 [1]: > 300 µM (not active)
- EC50 [2]: > 300 µM (not active)

SMILES: CCCc1n[nH]c2c1C(c1cccc(OC(=O)c3ccco3)c1)C(C#N)=C(N)O2 (stereo not drawn)
- AC50 [4]: 5.48 µM (active)
- EC50 (Protein RecA): 4.91 µM (active)

SMILES: COc1ccccc1/C=C/CN1CCC(Oc2cc(C(=O)NC3CC3)ccc2OC)CC1
- EC50 [5]: > 195 µM (not active)

SMILES: O=C1CCN(S(=O)(=O)c2ccccc2)N1
- AC50 (Cytochrome P450 3A4): 28.2 µM (inconclusive)
- AC50 [4]: 31.2 µM (active)
- EC50 (Protein RecA): 3.73 µM (active)
- AC50 (Cytochrome P450 2C9): 12.6 µM (inconclusive)

SMILES: O=C(COC(=O)CCc1nc(O)c2ccccc2n1)Nc1c(Cl)cccc1C(F)(F)F
- IC50 (H9c2): > 79 µM (inactive)
- EC50 [5]: > 195 µM (not active)

SMILES: CCc1ccc(OCc2cccc(C(=O)N/N=C\c3cnn(C)c3C)c2)cc1
- IC50 [3]: 9.07 µM (active)

SMILES: NN1C(=O)/C(=C2/Sc3ccccc3N2CCCS(=O)(=O)O)SC1=S
- IC50 [3]: 8.53 µM (active)

SMILES: Cc1cc(Cl)ccc1OC(C)C(=O)NC(C)C1CCCO1 (stereo not drawn)
- EC50 [5]: > 195 µM (not active)

SMILES: O=C(N/N=C/c1ccccn1)c1cc(-c2ccc(Br)s2)n[nH]1
- IC50 [3]: 8.5 µM (active)

SMILES: O=C(COC(=O)c1ccc2c(c1Cl)C(=O)c1ccccc1C2=O)NC1CC1
- AC50 [4]: 26.2 µM (active)
- EC50 (Protein RecA): 12.9 µM (active)

SMILES: O=C(Nc1ccnn1C1CCN(CC2CC=CCC2)CC1)c1ccccc1 (stereo not drawn)
- EC50 [1]: 52.3 µM (active)
- EC50 [2]: 43.2 µM (active)

SMILES: CCOC(=O)c1c(C)oc2c1c1c(c3ccccc32)OCN(CCCC(=O)O)C1
- EC50 (H4): 11 µM (active)
- EC50 [6]: 22.8 µM (active)
- AC50 [4]: > 120 µM (inactive)
- CC50 [7]: 43.6 µM (active)
- EC50 (Protein RecA): 4.11 µM (active)

SMILES: C#CCOc1ccc(Br)cc1C(c1c(C)n[nH]c1O)c1c(C)n[nH]c1O
- AC50 [4]: 0.973 µM (active)
- EC50 (Protein RecA): 1.03 µM (active)

SMILES: COC(=O)C1=C(COc2ccccc2)NC(=O)NC1c1ccc2ccccc2c1 (stereo not drawn)
- IC50 [3]: 13.8 µM (active)
